Measured values from paper PMC9030254, “Target Hopping from Protein Kinases to PXR: Identification of Small-Molecule Protein Kinase Inhibitors as Selective Modulators of Pregnane X Receptor from TüKIC Library” (Cells, 2022).

Experiments:
ABCB1 = assay: PXR target gene mRNA expression in LS174T cells (RT-qPCR); conditions: for effect on rifampicin-mediated induction of ABCB1: 10 µM compound + 10 µM rifampicin, 72 h; for expression of ABCB1 mRNA: 10 µM single treatment, 48 h (109) or 72 h (73, 100)
Description: In chemical treatments, phenol red-free DMEM was used, and regular FBS was replaced by dextran-coated charcoal-treated FBS. For gene expression analyses, 0.3 × 10^6 LS174T cells were seeded per well of a 12-well plate. The next day, chemical treatment was initiated for 48–72 h, with daily medium change.
Total RNA was prepared from LS174T and HepaRG cells using the NucleoSpin RNA kit (Macherey-Nagel, Düren, Germany). RNA integrity was analyzed by formaldehyde-agarose gel electrophoresis. First strand cDNA was synthesized as described earlier [37]. Relative quantification analyses were conducted with TaqMan RT-PCR utilizing the BioMark HD system and FLEX Six Gene Expression Integrated Fluidic Circuits (Fluidigm, South San Francisco, CA, USA) as described previously [34]. TaqMan gene expression assays were either the commercially available predesigned assays Hs00184500_m1 (ABCB1) and Hs00604506_m1 (CYP3A4) (Thermo Fischer Scientific) or have been described previously: CYP2B6 [31] and 18S rRNA [39]. Data were analyzed as described previously [37]. Gene expression levels were normalized to respective 18S rRNA levels.

[1] = molecular target: T1, PXR interaction with coactivator SRC1 (Homo sapiens, UniProt O75469); assay: Mammalian two-hybrid coactivator interaction assay; assay type: cell-based; conditions: for effect on rifampicin-dependent recruitment of SRC1 by PXR: HepG2, 10 µM compound + 10 µM rifampicin; for induction of interaction of PXR with coactivator SRC1: HepG2, 10 µM, alone
T1 construct: VP16-PXR LBD(108–434); expressed in transfected cells; host or cells: HepG2
T1 sequence (O75469 108-434): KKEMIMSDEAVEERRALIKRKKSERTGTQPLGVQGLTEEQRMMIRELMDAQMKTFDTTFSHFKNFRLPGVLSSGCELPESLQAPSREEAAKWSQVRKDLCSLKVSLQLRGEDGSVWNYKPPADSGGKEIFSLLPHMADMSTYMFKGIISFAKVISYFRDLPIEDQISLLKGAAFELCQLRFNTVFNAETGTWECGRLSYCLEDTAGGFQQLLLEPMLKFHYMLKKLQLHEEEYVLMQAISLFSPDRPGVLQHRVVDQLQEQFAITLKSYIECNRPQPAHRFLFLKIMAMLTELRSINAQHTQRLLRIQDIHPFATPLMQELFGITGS
Description: (§1) In mammalian two-hybrid corepressor/coactivator interaction assays, per well 0.24 µg pGL4-G5, 0.01 µg pGL4.75[hRluc/CMV], 0.03 µg expression plasmid encoding VP16-AD/PXR LBD fusion, and 0.03 µg expression plasmids encoding GAL4-DBD/SRC1-RID or GAL4-DBD/SMRT-RID fusions, respectively, were used. For the SMRT corepressor interaction assay, additionally 0.015 µg of RXRα expression plasmid was included.

PXR LBD = molecular target: T2, PXR LBD (Homo sapiens, UniProt O75469); assay: Mammalian two-hybrid PXR LBD assembly assay; assay type: cell-based; conditions: HepG2, 10 µM, 24 h
T2 construct: GAL4-DBD/PXR(132–188); VP16-AD/PXR(189–434); expressed in transfected cells; host or cells: HepG2
T2 sequence (O75469 132-188): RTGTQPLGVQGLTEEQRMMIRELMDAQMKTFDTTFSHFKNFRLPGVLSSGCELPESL
T2 sequence (O75469 189-434): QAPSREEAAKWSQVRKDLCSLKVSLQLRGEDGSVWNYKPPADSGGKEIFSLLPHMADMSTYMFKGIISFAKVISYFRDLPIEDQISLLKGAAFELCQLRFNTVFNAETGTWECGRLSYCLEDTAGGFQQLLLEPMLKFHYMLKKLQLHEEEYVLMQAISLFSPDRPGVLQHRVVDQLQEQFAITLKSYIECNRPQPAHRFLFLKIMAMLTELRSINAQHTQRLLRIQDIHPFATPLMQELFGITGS
Description: For the mammalian two-hybrid PXR ligand-binding domain assembly assay, 0.24 µg pGL4-G5, 0.01 µg pMetLuc2control, and 0.03 µg each of expression plasmids encoding GAL4-DBD/PXR(132–188) and VP16-AD/PXR(189–434) fusion proteins were used per well. Otherwise, batch transfection was performed as above with HepG2 cells.
Figure 5 PXR binding of phenylaminobenzosuberones is indicated by cellular PXR LBD assembly assay and inhibition of LBP-filled PXR mutant (A) Novel compounds induce PXR LBD assembly. […] (B) Effects of novel compounds on LBP-filled PXR mutant. HepG2 cells were transiently transfected with CYP3A4 reporter and expression plasmid encoding PXR(S208W/S247W/C284W) and treated as described above. […] Statistically significant differences are illustrated with asterisks. ** p ˂ 0.01, compared to respective treatments with DMSO analyzed by repeated measures one-way ANOVA with Dunnett’s multiple comparisons test.

CAR1 = molecular target: T3, CAR1 (Homo sapiens, UniProt Q14994); assay: Nuclear receptor selectivity reporter assay, CAR1; assay type: cell-based; conditions: HepG2, 10 µM
T3 construct: expressed in transfected cells; host or cells: HepG2
T3 sequence (Q14994 1-348 isoform Q14994-2): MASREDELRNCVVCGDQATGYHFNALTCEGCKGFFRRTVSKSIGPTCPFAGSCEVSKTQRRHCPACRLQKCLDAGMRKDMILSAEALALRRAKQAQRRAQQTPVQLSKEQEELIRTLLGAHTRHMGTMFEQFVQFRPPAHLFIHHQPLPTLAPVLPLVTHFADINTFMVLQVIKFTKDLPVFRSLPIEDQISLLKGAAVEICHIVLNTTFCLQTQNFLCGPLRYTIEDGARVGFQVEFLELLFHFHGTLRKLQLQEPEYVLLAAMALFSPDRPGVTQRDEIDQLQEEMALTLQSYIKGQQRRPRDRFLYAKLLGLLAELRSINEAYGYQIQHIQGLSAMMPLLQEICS
Description: For testing nuclear receptor selectivity and LBP-filled PXR mutant activation, transient batch transfection was conducted as above, but with HepG2 cells and the following plasmids, with amounts per well of 0.23–0.27 µg pGL4-CYP3A4(-7830Δ7208-364) or pGL3(DR3)3Tk (as reporter for VDR), 0.01 µg pMetLuc2control, and 0.03 µg either CAR1, CAR3, VDR, or PXR(S208W/S247W/C284W) expression plasmids. In addition, 0.03 µg RXRα expression plasmid was added to CAR3 transfections. Metridia luciferase activity was measured from 10 µL of medium supernatant after adding 100 µL Renilla luciferase assay solution.
Figure 6 Selectivity of novel PXR ligands within the NR1I group of nuclear receptors. HepG2 cells were transiently transfected with CYP3A4 reporter and expression plasmids encoding (A) CAR1 or (B) CAR3, or (C) direct repeat (DR3)3 reporter and expression plasmid encoding VDR. Cells were treated with 0.2% DMSO or 10 µM chemicals as indicated. 1α,25(OH)2D3 was used at 1 µM.

[2] = molecular target: T4, PXR interaction with corepressor SMRT (Homo sapiens, UniProt O75469); assay: Mammalian two-hybrid corepressor interaction assay; assay type: cell-based; conditions: HepG2, 10 µM
T4 construct: VP16-PXR LBD(108–434); expressed in transfected cells; host or cells: HepG2
T4 sequence (O75469 108-434): T1 sequence (O75469 108-434)
T4 sequence (P19793 1-462 partner): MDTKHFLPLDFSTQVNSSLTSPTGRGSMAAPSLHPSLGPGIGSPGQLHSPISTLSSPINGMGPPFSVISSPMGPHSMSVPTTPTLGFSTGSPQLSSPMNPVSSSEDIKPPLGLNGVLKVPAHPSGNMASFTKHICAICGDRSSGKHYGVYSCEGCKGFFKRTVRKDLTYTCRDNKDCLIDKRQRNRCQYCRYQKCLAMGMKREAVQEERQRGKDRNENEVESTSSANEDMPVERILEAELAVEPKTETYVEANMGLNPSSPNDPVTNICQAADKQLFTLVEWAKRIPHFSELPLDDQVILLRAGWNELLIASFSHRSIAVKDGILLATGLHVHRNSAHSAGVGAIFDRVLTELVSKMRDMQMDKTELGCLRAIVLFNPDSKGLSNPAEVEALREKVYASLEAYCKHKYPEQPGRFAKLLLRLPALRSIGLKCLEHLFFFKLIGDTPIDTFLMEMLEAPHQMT
Description: as §1

| SMILES | effect on rifampicin-mediated induction of ABCB1 (ABCB1) | expression of ABCB1 mRNA (ABCB1) | effect on rifampicin-dependent recruitment of SRC1 by PXR [1] | induction of interaction of PXR with coactivator SRC1 [1] | assembly of the PXR LBD (PXR LBD) | suppression of constitutive activity of CAR1 (CAR1) | effect on constitutive interaction of PXR with corepressor SMRT [2] | activation of CAR1 (CAR1) |
| --- | --- | --- | --- | --- | --- | --- | --- | --- |
| Cc1ccc(NC(=O)Cc2ccccc2)cc1Nc1ccc2c(c1)CCCCC2=O [Compound 73] | suppressed its rifampicin-mediated induction | not induced | abrogated the rifampicin-dependent recruitment of SRC1 by PXR | did not induce any interaction of PXR with coactivator SRC1 | induced the assembly of the PXR LBD | 30% | impaired the constitutive interaction of PXR with the corepressor |  |
| O=C(Cc1ccccc1)Nc1ccc(F)c(Nc2ccc3c(c2)CCCCC3=O)c1 [Compound 100] | suppressed its rifampicin-mediated induction | not induced | abrogated the rifampicin-dependent recruitment of SRC1 by PXR | did not induce any interaction of PXR with coactivator SRC1 | induced the assembly of the PXR LBD | 30% | impaired the constitutive interaction of PXR with the corepressor |  |
| O=C(Nc1ccc(F)c(Nc2ccc3c(c2)CCCCC3=O)c1)c1cccc(F)c1 [Compound 109] |  | induced to a lesser extent than by rifampicin |  | interaction with SRC1 was induced | induced the assembly of the PXR LBD |  | impaired the constitutive interaction of PXR with the corepressor | did not reach statistical significance |
